Data from patent US7214495B2, “Screening method” (Takeda Pharmaceutical Company Limited, priority 2002, dated 2007).

Key:
Type in all cases: cell-based
[1] = system: mouse pancreatic β cell line MIN6; assay: Insulin secretion from MIN6 in KRBH buffer (immunoassay); conditions: for insulin secretion enhancing activity: 22 mM glucose KRBH, 90 minutes; for insulin secretion activity in BSA-containing buffer / insulin secretion enhancing activity in buffer containing Nifedipine / insulin secretion enhancing activity in PD98059-containing buffer / insulin secretion enhancing activity, glucose dependency: 10 μM fatty acid; for insulin secretion activity in BSA-containing buffer: 0.1% fatty acid-free BSA; for insulin secretion enhancing activity in buffer containing Nifedipine: Nifedipine 10 μM; for insulin secretion enhancing activity in PD98059-containing buffer: PD98059 50 μM; for insulin secretion enhancing activity, glucose dependency: high glucose level conditions of at least 11 mM (0, 5.5, 11, 22 mM tested); for insulin secretion enhancing activity in buffer without Ca^2+ ions: 10 μM, no Ca^2+ ions, 0.1 mM EGTA, 22 mM glucose; for insulin secretion enhancing activity in m40i103-introduced MIN6: GPR40-specific siRNA m40i103 introduced; for insulin secretion enhancing activity in MIN6 introduced with Scramble II duplex siRNA: random siRNA control
Method: The mouse pancreatic β cell line MIN6 incubated in a flask was scraped in PBS containing 2.5 mM EDTA and plated in a 96-well plate followed by incubation for 2 days. The medium used was the same as in EXAMPLE 24, namely, 4.5 g/l of glucose-containing Dulbecco's Modified Eagle Medium (DMEM, Invitrogen, Inc.) supplemented with 15% fetal calf serum (ThermoTrace, Inc.), 5.5 μM 2-mercaptethanol (Invitrogen, Inc.), 20 mM HEPES pH 7.3, 100 U/ml penicillin and 100 μg/ml streptomycin. The cells were washed twice with modified Krebs-Ringer bicarbonate buffer (KRBH, 116 mM NaCl, 4.7 mM KCl, 1.2 mM KH2PO4, 1.2 mM MgSO4, 2.5 mM CaCl2, 25 mM NaHCO3, 24 mM HEPES, pH 7.3), followed by preincubation at 37° C. in 5% CO2 for 30 minutes. The fatty acid diluted/prepared using the aforesaid KRBH buffer added with 22 mM glucose was added to the cells after the preincubation, followed by incubation under the conditions of 37° C. in 5% CO2 for 90 minutes. After the incubation, the supernatant of the cells was recovered and stored in a frozen state. The insulin content in the supernatant was assayed using an insulin immunoassay kit commercially available (Amersham Pharmacia, Inc.).
Based on the method of EXAMPLE 25, effects of glucose level when added with fatty acids were examined. The level of glucose, which was added to KRBH upon the addition of fatty acids, was varied to 0, 5.5, 11 and 22 mM to study the effects.
The insulin secretion enhancing activity in the m40i103-introduced MIN6 cells using HVJ Envelope VECTOR KIT GenomONE based on the method of EXAMPLE 18 was examined. The insulin secretion enhancing activity by fatty acids was examined according to the method of EXAMPLE 25.
Based on the procedures of EXAMPLE 25, an essential prerequisite of Ca^2+ ions in the extracellular fluid was examined. In preincubation and incubation with a sample, Ca^2+ ions were removed and 0.1 mM EGTA, which was a reagent for chelating Ca^2+ ions, was further added, and then the insulin secretion enhancing activity by fatty acids was examined in this case.
Based on the method of EXAMPLE 25, effects of Ca^2+ channel blocker (Nifedipine) and MAP kinase inhibitor (PD98059) were examined. In preincubation and incubation with a sample, the insulin secretion enhancing activity by fatty acids was examined when Nifedipine (10 μM) or PD98059 (50 μM) was added.
It is known that fatty acids have the property of binding to albumin. Based on the method of EXAMPLE 25, effects were examined when bovine serum albumin (BSA) was present. In preincubation and incubation with a sample, the insulin secretion activity by fatty acids was examined when 0.1% BSA was added to the buffer.

Mouse GPR40 = target: T1, Mouse GPR40 (Mus musculus, UniProt Q76JU9); assay: cAMP production in mouse GPR40-expressed CHO cells; conditions: 10 minutes; for cAMP production activity, presence of forskolin: 2 μM forskolin
T1 construct: expressed in transfected cells
T1 sequence (Q76JU9 whole entry): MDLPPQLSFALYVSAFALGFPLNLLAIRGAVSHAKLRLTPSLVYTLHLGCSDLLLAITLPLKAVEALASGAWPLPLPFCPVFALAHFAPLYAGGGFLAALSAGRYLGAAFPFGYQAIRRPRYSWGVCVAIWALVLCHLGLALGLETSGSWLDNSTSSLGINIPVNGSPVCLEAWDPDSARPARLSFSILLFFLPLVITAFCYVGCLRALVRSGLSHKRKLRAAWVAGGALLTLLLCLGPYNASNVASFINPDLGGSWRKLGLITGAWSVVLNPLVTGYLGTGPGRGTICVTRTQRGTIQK
Method: Human and mouse GPR40-expressed CHO cells were incubated for 20 hours in a 96-well Plate at a density of 1×10^5/well. After the cells were washed twice with 100 μl of Assay Buffer (DMEM (Invitrogen) containing 0.1 mM IBMX (Wako Pure Chemical) and 0.1 mM Ro-20-1724 (Biomol)), DHA, solutions of linoleic acid and […] (both by SIGMA) in Assay Buffer in the presence or absence of 2 μM forskolin (Wako Pure Chemical) were added to the cells, followed by reacting at 37° C. for 10 minutes. After the reaction, the cells were lysed in accordance with the formulation of cAMP Screen (ABI) and the cAMP level in the cells was assayed.

[2] = system: mouse insulinoma MIN6 cells; assay: Insulin secretion from MIN6 cells with free fatty acid-BSA mixture (RIA); conditions: 300 μM to 1000 μM; fatty acid-BSA 4:1; 11 mM glucose; 90 (or 60) minutes
Method: The MIN6 cells were cultured in DMEM (high glucose, Invitrogen) containing 15% FCS (Trace Scientific Ltd.), 55 μM 2-mercaptoethanol, 100 U/ml penicillin and 100 μg/ml streptomycin, unless otherwise indicated. MIN6 cells were plated in a 96-well plate in 10^5 cells/well, followed by incubation at 37° C. for 3 days in a CO2 incubator adjusted to a concentration of 5% CO2. The medium was replaced by RPMI1640 (glucose free, Invitrogen) containing 10% FCS (Trace Scientific Ltd.), 5.5 mM glucose, 100 U/ml penicillin and 100 μg/ml streptomycin, followed by incubation for further 24 hours. After the medium was removed by suction, a solution mixture of free fatty acid-bovine serum albumin (BSA) (in a molar ratio of 4:1) diluted with RPMI1640 (glucose free, Invitrogen) containing 10% FCS (Trace Scientific Ltd.), 11 mM glucose, 100 U/ml penicillin and 100 μg/ml streptomycin was added to the cells, followed by reacting in a CO2 incubator adjusted to a 5% CO2 concentration at 37° C. for 90 minutes (or 60 minutes). After the reaction, the 96-well plate was centrifuged at 1500 rpm for 5 minutes and the culture supernatant was then recovered. The amount of insulin secreted into the culture supernatant was determined by radioimmunoassay (RIA) using the rat insulin RIA system (Amersham Pharmacia).

## CCCCC/C=C\C/C=C\C/C=C\C/C=C\CCCC(=O)O [Arachidonic acid (C20:4), Arachidonic acid]
[1]
  insulin secretion enhancing activity: significantly noted

## CC/C=C\C/C=C\C/C=C\C/C=C\C/C=C\C/C=C\CCC(=O)O [Docosahexaenoic acid (C22:6), 4Z,7Z,10Z,13Z,16Z,19Z-docosahexaenoic acid]
Mouse GPR40
  cAMP production activity, presence of forskolin: no activity was shown
  cAMP production activity, absence of forskolin: did not show any cAMP production activity
[1]
  insulin secretion enhancing activity: significantly noted

## CCCCC/C=C\C/C=C\CCCCCCCC(=O)O [Linoleic acid (C18:2), Linoleic acid]
Mouse GPR40
  cAMP production activity, presence of forskolin: no activity was shown
  cAMP production activity, absence of forskolin: did not show any cAMP production activity
[1]
  insulin secretion activity in BSA-containing buffer: almost suppressed
  insulin secretion enhancing activity in buffer containing Nifedipine: not appreciated
  insulin secretion enhancing activity in PD98059-containing buffer: same results as in ordinary buffer
  insulin secretion enhancing activity, glucose dependency: remarkable
  insulin secretion enhancing activity in buffer without Ca^2+ ions: not observed
  insulin secretion enhancing activity: significantly noted
  insulin secretion enhancing activity in m40i103-introduced MIN6: no longer noted
  insulin secretion enhancing activity in MIN6 introduced with Scramble II duplex siRNA: retained

## CCCCCCCC/C=C\CCCCCCCC(=O)O [Oleic acid (C18:1), Oleic acid]
[2]
  insulin secretion by MIN6 cells: promoted
[1]
  insulin secretion activity in BSA-containing buffer: almost suppressed
  insulin secretion enhancing activity in buffer containing Nifedipine: not appreciated
  insulin secretion enhancing activity in PD98059-containing buffer: same results as in ordinary buffer
  insulin secretion enhancing activity, glucose dependency: remarkable
  insulin secretion enhancing activity in buffer without Ca^2+ ions: not observed
  insulin secretion enhancing activity: significantly noted

## CCCCC/C=C\C/C=C\C/C=C\CCCCC(=O)O [γ-Linolenic acid (C18:3), γ-Linolenic acid]
[2]
  insulin secretion by MIN6 cells: promoted
Mouse GPR40
  cAMP production activity, presence of forskolin: no activity was shown
  cAMP production activity, absence of forskolin: did not show any cAMP production activity
[1]
  insulin secretion enhancing activity in buffer without Ca^2+ ions: not observed
  insulin secretion enhancing activity: significantly noted
  insulin secretion enhancing activity in m40i103-introduced MIN6: no longer noted
  insulin secretion enhancing activity in MIN6 introduced with Scramble II duplex siRNA: retained
